molecular target: T1, CRF1 receptors (Homo sapiens, UniProt P34998); assay: CRF1 receptor radioligand binding assay ([125I]-oCRF competition, IMR-32 cell membranes); settings: IMR-32 cell membranes, [125I]-oCRF 100 pM; read-out: Ki (CRF-1R)
T1 construct: endogenous in cells; host or cells: IMR-32 cells, transformed with 2.5 µM 5'-bromo-2'-deoxyuridine for 10 days; membrane preparation
T1 sequence (P34998 24-415): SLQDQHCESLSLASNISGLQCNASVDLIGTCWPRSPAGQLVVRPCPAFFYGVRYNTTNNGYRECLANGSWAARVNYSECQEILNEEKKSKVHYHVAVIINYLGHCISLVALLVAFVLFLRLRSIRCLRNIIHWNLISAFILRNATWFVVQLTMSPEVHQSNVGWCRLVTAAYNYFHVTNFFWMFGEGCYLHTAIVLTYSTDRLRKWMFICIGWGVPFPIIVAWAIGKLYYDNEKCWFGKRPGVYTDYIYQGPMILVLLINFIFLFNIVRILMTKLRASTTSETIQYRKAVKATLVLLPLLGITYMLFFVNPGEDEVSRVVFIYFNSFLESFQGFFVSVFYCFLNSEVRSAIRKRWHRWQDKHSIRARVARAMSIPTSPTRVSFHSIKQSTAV
In short: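 Buffer: Tris pH 7.2 with MgCl2, BSA, Triton X-100, aprotinin, leupeptin; reaction stopped with ice-cold wash and filtered. Nonspecific binding set with 10 μM oCRF.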

`CCCCN(CC)Cc1c(C(F)(F)F)nc2n(-c3ccc(C(C)C)cc3Br)c3ccccc3n12` [Example 203, [8-(2-Bromo-4-isopropyl-phenyl)-2-trifluoromethyl-8H-1,3a,8-triaza-cyclopenta[α]inden-3-ylmethyl]-butyl-ethyl-amine] and `CCCN(CCC)Cc1c(C(F)(F)F)nc2n(-c3ccc(C(C)C)cc3Br)c3ccccc3n12` [Example 206, [8-(2-Bromo-4-isopropyl-phenyl)-2-trifluoromethyl-8H-1,3a,8-triaza-cyclopenta[α]inden-3-ylmethyl]-dipropyl-amine] cannot be ordered by Ki: less than 10000 nM for the first, less than 10000 nM for the second.

`CC(C)c1ccc(-n2c3ccccc3n3c(CN(CCC4CC4)CC(F)(F)F)c(C(F)(F)F)nc23)c(Br)c1` [Example 204, [8-(2-Bromo-4-isopropyl-phenyl)-2-trifluoromethyl-8H-1,3a,8-triaza-cyclopenta[α]inden-3-ylmethyl]-(2-cyclopropyl-ethyl)-(2,2,2-trifluoro-ethyl)-amine] and `CCN(CCC1CC1)Cc1c(C(F)(F)F)nc2n(-c3ccc(C(C)C)cc3Br)c3ccccc3n12` [Example 207, [8-(2-Bromo-4-isopropyl-phenyl)-2-trifluoromethyl-8H-1,3a,8-triaza-cyclopenta[α]inden-3-ylmethyl]-(2-cyclopropyl-ethyl)-ethyl-amine] cannot be ordered by Ki: less than 10000 nM for the first, less than 10000 nM for the second.

`CCCN(Cc1c(C(F)(F)F)nc2n(-c3ccc(C(C)C)cc3Br)c3ccccc3n12)CC(F)(F)C(F)(F)F` [Example 205, [8-(2-Bromo-4-isopropyl-phenyl)-2-trifluoromethyl-8H-1,3a,8-triaza-cyclopenta[α]inden-3-ylmethyl]-(2,2,3,3,3-pentafluoro-propyl)-propyl-amine] and `CCCN(Cc1ccccc1)Cc1c(C(F)(F)F)nc2n(-c3ccc(C(C)C)cc3Br)c3ccccc3n12` [Example 209, Benzyl-[8-(2-bromo-4-isopropyl-phenyl)-2-trifluoromethyl-8H-1,3a,8-triaza-cyclopenta[α]inden-3-ylmethyl]-propyl-amine] cannot be ordered by Ki: less than 10000 nM for the first, less than 10000 nM for the second.

`CCN(Cc1ccccc1)Cc1c(C(F)(F)F)nc2n(-c3ccc(C(C)C)cc3Br)c3ccccc3n12` [Example 208, Benzyl-[8-(2-bromo-4-isopropyl-phenyl)-2-trifluoromethyl-8H-1,3a,8-triaza-cyclopenta[α]inden-3-ylmethyl]-ethyl-amine] and `CCN(CCc1ccccc1)Cc1c(C(F)(F)F)nc2n(-c3c(C)cc(C)cc3C)c3ncccc3n12` [Example 218, Ethyl-phenethyl-[2-trifluoromethyl-8-(2,4,6-trimethyl-phenyl)-8H-1,3a,7,8-tetraaza-cyclopenta[α]inden-3-ylmethyl]-amine] cannot be ordered by Ki: less than 10000 nM for the first, less than 1000 nM for the second.

`Cc1cc(C)c(-n2c3ncccc3n3c(CN(CC4CC4)CC(F)(F)F)c(C(F)(F)F)nc23)c(C)c1` [Example 210, Cyclopropylmethyl-(2,2,2-trifluoro-ethyl)-[2-trifluoromethyl-8-(2,4,6-trimethyl-phenyl)-8H-1,3a,7,8-tetraaza-cyclopenta[α]inden-3-ylmethyl]-amine] and `Cc1cc(C)c(-n2c3ncccc3n3c(CN(CC4CCC4)CC(F)(F)F)c(C(F)(F)F)nc23)c(C)c1` [Example 216, Cyclobutylmethyl-(2,2,2-trifluoro-ethyl)-[2-trifluoromethyl-8-(2,4,6-trimethyl-phenyl)-8H-1,3a,7,8-tetraaza-cyclopenta[α]inden-3-ylmethyl]-amine] cannot be ordered by Ki: less than 100 nM for the first, less than 100 nM for the second.

`Cc1cc(C)c(-n2c3ncccc3n3c(CN(CC4CC4)CC(F)(F)C(F)(F)F)c(C(F)(F)F)nc23)c(C)c1` [Example 212, Cyclopropylmethyl-(2,2,3,3,3-pentafluoro-propyl)-[2-trifluoromethyl-8-(2,4,6-trimethyl-phenyl)-8H-1,3a,7,8-tetraaza-cylopenta[α]inden-3-ylmethyl]-amine] and `CCCN(Cc1c(C(F)(F)F)nc2n(-c3c(C)cc(C)cc3C)c3ncccc3n12)CC(F)(F)C(F)(F)F` [Example 224, (2,2,3,3,3-Pentafluoro-propyl)-propyl-[2-trifluoromethyl-8-(2,4,6-trimethyl-phenyl)-8H-1,3a,7,8-tetraaza-cyclopenta[α]inden-3-ylmethyl]-amine] cannot be ordered by Ki: less than 100 nM for the first, less than 1000 nM for the second.

`Cc1cc(C)c(-n2c3ncccc3n3c(CN(CCC(F)(F)F)CC4CC4)c(C(F)(F)F)nc23)c(C)c1` [Example 213, Cyclopropylmethyl-[2-trifluoromethyl-8-(2,4,6-trimethyl-phenyl)-8H-1,3a,7,8-tetraaza-cyclopenta[α]inden-3-ylmethyl]-(3,3,3-trifluoro-propyl)-amine] and `Cc1cc(C)c(-n2c3ncccc3n3c(CN(CCC4CC4)CCC(F)(F)F)c(C(F)(F)F)nc23)c(C)c1` [Example 225, (2-Cyclopropyl-ethyl)-[2-trifluoromethyl-8-(2,4,6-trimethyl-phenyl)-8H-1,3a,7,8-tetraaza-cyclopenta[α]inden-3-ylmethyl]-(3,3,3-trifluoro-propyl)-amine] cannot be ordered by Ki: less than 100 nM for the first, less than 1000 nM for the second.

`Cc1cc(C)c(-n2c3ncccc3n3c(CN(CC4CC4)CC4CC4)c(C(F)(F)F)nc23)c(C)c1` [Example 214, Bis-cyclopropylmethyl-[2-trifluoromethyl-8-(2,4,6-trimethyl-phenyl)-8H-1,3a,7,8-tetraaza-cyclopenta[α]inden-3-ylmethyl]-amine] and `CCN(Cc1c(C(F)(F)F)nc2n(-c3c(C)cc(C)cc3C)c3ncccc3n12)CC1CC1` [Example 223, Cyclopropylmethyl-ethyl-[2-trifluoromethyl-8-(2,4,6-trimethyl-phenyl)-8H-1,3a,7,8-tetraaza-cyclopenta[α]inden-3-ylmethyl]-amine] cannot be ordered by Ki: less than 100 nM for the first, less than 1000 nM for the second.

`CCCN(Cc1c(C(F)(F)F)nc2n(-c3c(C)cc(C)cc3C)c3ncccc3n12)CC1CCC1` [Example 215, Cyclobutylmethyl-propyl-[2-trifluoromethyl-8-(2,4,6-trimethyl-phenyl)-8H-1,3a,7,8-tetraaza-cyclopenta[α]inden-3-ylmethyl]-amine] and `CCCN(CCC1CC1)Cc1c(C(F)(F)F)nc2n(-c3c(C)cc(C)cc3C)c3ncccc3n12` [Example 230, (2-Cyclopropyl-ethyl)-propyl-[2-trifluoromethyl-8-(2,4,6-trimethyl-phenyl)-8H-1,3a,7,8-tetraaza-cyclopenta[α]inden-3-ylmethyl]-amine] cannot be ordered by Ki: less than 100 nM for the first, less than 1000 nM for the second.

`CCCN(CCc1ccccc1)Cc1c(C(F)(F)F)nc2n(-c3c(C)cc(C)cc3C)c3ncccc3n12` [Example 217, Phenethyl-propyl-[2-trifluoromethyl-8-(2,4,6-trimethyl-phenyl)-8H-1,3a,7,8-tetraaza-cyclopenta[α]inden-3-ylmethyl]-amine] and `Cc1cc(C)c(-n2c3ncccc3n3c(CN(CCc4ccccc4)CCC(F)(F)F)c(C(F)(F)F)nc23)c(C)c1` [Example 226, Phenethyl-[2-trifluoromethyl-8-(2,4,6-trimethyl-phenyl)-8H-1,3a,7,8-tetraaza-cyclopenta[a]inden-3-ylmethyl]-(3,3,3-trifluoro-propyl)-amine] cannot be ordered by Ki: less than 100 nM for the first, less than 1000 nM for the second.

`C=CCN(CC=C)Cc1c(C(F)(F)F)nc2n(-c3c(C)cc(C)cc3C)c3ncccc3n12` [Example 219, Diallyl-[2-trifluoromethyl-8-(2,4,6-trimethyl-phenyl)-8H-1,3a,7,8-tetraaza-cyclopenta[α]inden-3-ylmethyl]-amine] and `C=CCN(CCC)Cc1c(C(F)(F)F)nc2n(-c3c(C)cc(C)cc3C)c3ncccc3n12` [Example 220, Allyl-propyl-[2-trifluoromethyl-8-(2,4,6-trimethyl-phenyl)-8H-1,3a,7,8-tetraaza-cyclopenta[α]inden-3-ylmethyl]-amine] cannot be ordered by Ki: less than 1000 nM for the first, less than 1000 nM for the second.

`CCCN(CCC(F)(F)F)Cc1c(C(F)(F)F)nc2n(-c3c(C)cc(C)cc3C)c3ncccc3n12` [Example 221, Propyl-[2-trifluoromethyl-8-(2,4,6-trimethyl-phenyl)-8H-1,3a,7,8-tetraaza-cyclopenta[α]inden-3-ylmethyl]-(3,3,3-trifluoro-propyl)-amine] and `CCCN(Cc1c(C(F)(F)F)nc2n(-c3c(C)cc(C)cc3C)c3ncccc3n12)CC(F)(F)F` [Example 222, Propyl-(2,2,2-trifluoro-ethyl)-[2-trifluoromethyl-8-(2,4,6-trimethyl-phenyl)-8H-1,3a,7,8-tetraaza-cyclopenta[α]inden-3-ylmethyl]-amine] cannot be ordered by Ki: less than 1000 nM for the first, less than 1000 nM for the second.

`Cc1cc(C)c(-n2c3ncccc3n3c(CN(CCC(F)(F)F)Cc4ccccc4)c(C(F)(F)F)nc23)c(C)c1` [Example 227, Benzyl-[2-trifluoromethyl-8-(2,4,6-trimethyl-phenyl)-8H-1,3a,7,8-tetraaza-cyclopenta[α]inden-3-ylmethyl]-(3,3,3-trifluoro-propyl)-amine] and `Cc1cc(C)c(-n2c3ncccc3n3c(CN(C)Cc4ccccc4)c(C(F)(F)F)nc23)c(C)c1` [Example 228, Benzyl-methyl-[2-trifluoromethyl-8-(2,4,6-trimethyl-phenyl)-8H-1,3a,7,8-tetraaza-cyclopenta[α]inden-3-ylmethyl]-amine] cannot be ordered by Ki: less than 1000 nM for the first, less than 1000 nM for the second.

For `CCN(CCC1CC1)Cc1c(C(F)(F)F)nc2n(-c3c(C)cc(C)cc3C)c3ncccc3n12` [Example 229, (2-Cyclopropyl-ethyl)-ethyl-[2-trifluoromethyl-8-(2,4,6-trimethyl-phenyl)-8H-1,3a,7,8-tetraaza-cyclopenta[α]inden-3-ylmethyl]-amine], the Ki was less than 1000 nM.
